Assay results published in ChEMBL document CHEMBL4619727, “Induced osteoblast differentiation by amide derivatives of stilbene: The possible osteogenic agents” (Bioorg Med Chem Lett, 2020).
Each block holds one molecule with its values, some of them ahead of it. Activity calls are given as the source filed them. The rule behind the calls is not given here.

How the values were obtained:
Calvarial osteoblast [1] = assay: Osteo-blastogenic activity in mouse calvarial osteoblast assessed as upregulation of BMP2 mRNA expression at 1 pM to 100 pM measured after 48 hrs by qPCR analysis; format: functional, cell-based
[2] = target: Estrogen receptor beta (Mus musculus) (UniProt O08537); assay: Induction of ESR2-mediated osteoblast differentiation in mouse calvarial osteoblast assessed as increase in ALP activity at 1 pM measured after 48 hrs by spectrophotometric analysis; format: cell-based
Sequence of Estrogen receptor beta (Mus musculus) (O08537 whole entry): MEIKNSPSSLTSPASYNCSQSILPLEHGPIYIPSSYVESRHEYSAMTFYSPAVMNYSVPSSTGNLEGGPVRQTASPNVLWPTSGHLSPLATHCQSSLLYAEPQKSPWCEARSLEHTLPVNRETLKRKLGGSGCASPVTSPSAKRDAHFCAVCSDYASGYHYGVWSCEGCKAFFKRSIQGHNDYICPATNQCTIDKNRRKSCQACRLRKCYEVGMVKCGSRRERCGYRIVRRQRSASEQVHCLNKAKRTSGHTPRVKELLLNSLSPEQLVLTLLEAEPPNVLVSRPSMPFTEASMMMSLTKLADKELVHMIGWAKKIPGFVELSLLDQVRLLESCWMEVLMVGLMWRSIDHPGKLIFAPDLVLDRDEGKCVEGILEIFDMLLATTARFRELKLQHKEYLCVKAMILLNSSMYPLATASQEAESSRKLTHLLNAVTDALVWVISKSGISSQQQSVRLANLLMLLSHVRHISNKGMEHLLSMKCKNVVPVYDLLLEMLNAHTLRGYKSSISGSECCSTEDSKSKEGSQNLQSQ

Calvarial osteoblast [3] = assay: Upregulation of ALP mRNA expression in mouse calvarial osteoblast at 1 pM to 100 pM measured after 24 to 48 hrs by qPCR analysis; format: functional, cell-based
Calvarial osteoblast [4] = assay: Osteo-blastogenic activity in mouse calvarial osteoblast assessed as upregulation of Runx2 mRNA expression at 1 pM to 100 pM measured after 48 hrs by qPCR analysis; format: functional, cell-based
[5] = target: Estrogen receptor beta (Mus musculus) (UniProt O08537); assay: Induction of ESR2-mediated osteoblast differentiation in mouse calvarial osteoblast assessed as formation of mineralized nodule at 1 to 10 uM measured after 21 days by alizarin red staining based assay; format: cell-based
Mus musculus [6] = assay: Anti-osteoporosis activity in ovariectomized BALB/c mouse assessed as increase in femur bone volume density at 1 to 5 mg/kg, po via gavage administered for 1 month by microCT imaging analysis; format: functional, organism-based
Mus musculus [7] = assay: Anti-osteoporosis activity in ovariectomized BALB/c mouse assessed as increase in trabecular number in femur bone at 1 to 5 mg/kg, po via gavage administered for 1 month by microCT imaging analysis; format: functional, organism-based
Mus musculus [8] = assay: Anti-osteoporosis activity in ovariectomized BALB/c mouse assessed as increase in trabecular thickness in femur bone at 1 to 5 mg/kg, po via gavage administered for 1 month by microCT imaging analysis; format: functional, organism-based
Mus musculus [9] = assay: Anti-osteoporosis activity in ovariectomized BALB/c mouse assessed as reduction in trabecular spacing in femur bone at 1 to 5 mg/kg, po via gavage administered for 1 month by microCT imaging analysis; format: functional, organism-based
Mus musculus [10] = assay: Anti-osteoporosis activity in ovariectomized BALB/c mouse assessed as reduction in trabecular pattern factor in femur bone at 1 to 5 mg/kg, po via gavage administered for 1 month by microCT imaging analysis; format: functional, organism-based
Mus musculus [11] = assay: Anti-osteoporosis activity in ovariectomized BALB/c mouse at 5 mg/kg, po via gavage administered for 1 month by microCT imaging analysis; format: functional, organism-based
Calvarial osteoblast [12] = assay: Upregulation of ESR1 protein level in mouse calvarial osteoblast at 1 to 100 pM measured after 48 hrs by Western blot analysis; format: functional, cell-based
Calvarial osteoblast [13] = assay: Upregulation of ESR2 protein level in mouse calvarial osteoblast at 1 to 100 pM measured after 48 hrs by Western blot analysis; format: functional, cell-based
MCF7 = assay: Cytotoxicity against human MCF7 cells assessed as cell growth inhibition at 30 ug/ml by MTT assay relative to control; format: functional; settings: read-out: GI
[14] = system: Peritoneal macrophage cell; assay: Cytotoxicity against peritoneal macrophage cells (unknown origin) at 5 to 20 uM by MTT assay; format: cell-based
[15] = target: Estrogen receptor beta (Mus musculus) (UniProt O08537); assay: Induction of ESR2-mediated osteoblast differentiation in mouse calvarial osteoblast assessed as increase in ALP activity at 100 pM measured after 48 hrs by spectrophotometric analysis; format: cell-based
Mus musculus [16] = assay: Anti-osteoporosis activity in ovariectomized BALB/c mouse assessed as increase in femur bone volume density at 1 mg/kg, po via gavage administered for 1 month by microCT imaging analysis; format: functional, organism-based
Mus musculus [17] = assay: Anti-osteoporosis activity in ovariectomized BALB/c mouse assessed as increase in trabecular number in femur bone at 1 mg/kg, po via gavage administered for 1 month by microCT imaging analysis; format: functional, organism-based
Mus musculus [18] = assay: Anti-osteoporosis activity in ovariectomized BALB/c mouse assessed as increase in trabecular thickness in femur bone at 1 mg/kg, po via gavage administered for 1 month by microCT imaging analysis; format: functional, organism-based
Mus musculus [19] = assay: Anti-osteoporosis activity in ovariectomized BALB/c mouse assessed as reduction in trabecular spacing in femur bone at 1 mg/kg, po via gavage administered for 1 month by microCT imaging analysis; format: functional, organism-based
Mus musculus [20] = assay: Anti-osteoporosis activity in ovariectomized BALB/c mouse assessed as reduction in trabecular pattern factor in femur bone at 1 mg/kg, po via gavage administered for 1 month by microCT imaging analysis; format: functional, organism-based
[21] = target: Estrogen receptor beta (Mus musculus) (UniProt O08537); assay: Induction of ESR2-mediated osteoblast differentiation in mouse calvarial osteoblast assessed as increase in ALP activity at 1 nM measured after 48 hrs by spectrophotometric analysis; format: cell-based

Activity [2]: Active
Activity [5]: Active
Structure (SMILES): CCCCN(C)C(=O)CCCCC/C(=C(/C)c1ccc(OC)cc1)c1ccccc1
Activity (Calvarial osteoblast [1]): Active
Activity (Calvarial osteoblast [3]): Active
Activity (Calvarial osteoblast [4]): Active
Activity (Mus musculus [6]): Active
Activity (Mus musculus [7]): Active
Activity (Mus musculus [8]): Active
Activity (Mus musculus [9]): Active
Activity (Mus musculus [10]): Active
Activity (Mus musculus [11]): Active
Activity (Calvarial osteoblast [12]): Active
Activity (Calvarial osteoblast [13]): Active
inhibition of growth at 30 µg/mL (MCF7): 32.1%
Activity [14]: Non-Toxic

Activity [2]: Active
Structure (SMILES): COc1ccc(/C(C)=C(\CCCCCC(=O)N2CCCC2)c2ccccc2)cc1
inhibition of growth at 30 µg/mL (MCF7): 30 to 48%

Structure (SMILES): COc1ccc(/C(C)=C(\CCCCCC(=O)NCc2ccccn2)c2ccccc2)cc1
inhibition of growth at 30 µg/mL (MCF7): 30 to 48%

Structure (SMILES): COc1ccc(/C(C)=C(\CCCC(=O)NCc2ccccn2)c2ccccc2)cc1
inhibition of growth at 30 µg/mL (MCF7): 30 to 48%

Structure (SMILES): COc1ccc(/C(C)=C(\CCCCCC(=O)NCCc2ccccn2)c2ccccc2)cc1
inhibition of growth at 30 µg/mL (MCF7): 30 to 48%

Structure (SMILES): COc1ccc(/C(=C/c2ccccc2)CC(=O)N2CCCC2)cc1
inhibition of growth at 30 µg/mL (MCF7): 30 to 48%

Structure (SMILES): COc1ccc(/C(C)=C(\CCCC(=O)N2CCCC2)c2ccccc2)cc1
inhibition of growth at 30 µg/mL (MCF7): 48.4%

Activity [15]: Active
Structure (SMILES): COc1ccc(/C(C)=C(\CCCC(=O)NCCc2ccccn2)c2ccccc2)cc1

Activity [2]: Active
Structure (SMILES): CCCCCN(C)C(=O)C/C(=C\c1ccccc1)c1ccc(OC)cc1
inhibition of growth at 30 µg/mL (MCF7): 30 to 48%

Structure (SMILES): COc1ccc(/C(=C/c2ccccc2)CC(=O)NC(C)C)cc1
inhibition of growth at 30 µg/mL (MCF7): 30 to 48%

Structure (SMILES): O=C(c1ccc(OCCN2CCCCC2)cc1)c1c(-c2ccc(O)cc2)sc2cc(O)ccc12
Activity (Mus musculus [16]): Active
Activity (Mus musculus [17]): Active
Activity (Mus musculus [18]): Active
Activity (Mus musculus [19]): Active
Activity (Mus musculus [20]): Active

Activity [2]: Active
Structure (SMILES): CCCCN(C)C(=O)CCC/C(=C(/C)c1ccc(OC)cc1)c1ccccc1

Structure (SMILES): COc1ccc(/C(=C/c2ccccc2)CC(=O)NCCc2ccccn2)cc1
inhibition of growth at 30 µg/mL (MCF7): 30 to 48%

Activity [21]: Active
Structure (SMILES): COc1ccc(/C(=C/c2ccccc2)CC(=O)N(C(C)C)C(C)C)cc1
